In patent US20250304537A1 (Repare Therapeutics Inc., priority 2022, published 2025) one finds IC50 data, which are given here for 50 compounds.

One may read the IC50 as the midpoint of a concentration-inhibition curve.

The first test relates to PKMYT1 (CDK1 pThr14) in FUOV1 cells. Put plainly: PKMYT1 cell-based activity assay, CDK1 pThr14 AlphaLISA in FUOV1 cells. The note with it: 2 h, 2 h compound incubation, read-out: FUOV-1 CDK1 pThr14 IC50. As to the method:
To determine compound IC50 (PKMYT1 cell-based activity assay, CDK1 pThr14 AlphaLISA), FUOV1 cells were plated into a 96-well TC-treated culture plate at 50000 cells/well in a final volume of 100 μL of media. The plates were then allowed to equilibrate in a biological safety cabinet for 30 minutes before being placed in a humidified incubator at 37 C and 5% CO2 overnight. The next day, 2 μL of PKMYT1 inhibitors or DMSO were diluted in 400 μL of warmed culture media in a 96-well block using a Biomek FX liquid handler. Compounds were mixed in media and then 25 μL was dispensed into each well of the 96-well cell plate. Plates were centrifuged at 300 g for 10 seconds and then placed in the incubator for 2 hours. After the 2-hour incubation with compound, media was removed via aspiration using a multichannel pipette. 30 μL of 1× AlphaLISA lysis buffer (Perkin Elmer) supplemented with protease and phosphatase inhibitors as well as 1 mM PMSF, was added to each well. Plates were rotated at 500 g for 20 minutes to facilitate lysis. Plates were then sealed with aluminum foil and frozen at −80° C. for at least 1 hour. Lysates were thawed at 37° C. for 10 minutes, then 10 μL of each lysate was transferred in duplicate to a white 384-well assay plate. Antibody mixture was prepared in 1× AlphaLISA assay buffer (Perkin Elmer) containing antibodies (5 nM final concentration for rabbit pThr14-CDK1 from Abcam #ab58509 and mouse total CDK1 from ThermoFisher Scientific #33-1800). 5 μL of antibody mixture was added to each well of the assay plate. The assay plate was sealed and stored at 4° C. overnight. The next day, AlphaLISA bead mixture (Perkin Elmer) was prepared in 1× AlphaLISA assay buffer. Anti-rabbit IgG Acceptor (Perkin Elmer #AL104C) and anti-mouse IgG Donor beads (Perkin Elmer #AS104D) were prepared to a concentration of 80 μg/ml in assay buffer. 5 μL of bead mixture was added to each well of the assay plate (20 μg/ml final concentration for each bead). The plate was protected from light and incubated for 2 hours at room temperature. After a 2-hour incubation with beads, the plate was read using the Perkin Elmer EnVision Multimode plate reader with excitation at 680 nm and emission at 615 nm.
In general terms: Alpha assays give light when donor and acceptor beads are brought close together.
As to `Cc1ccc2[nH]ncc2c1-c1nc(-c2ccc(F)cc2Nc2cncc(C#N)n2)nc(C(N)=O)c1N` [Compound 706], the IC50 turned out to be 56 nM.

In the case of `Cc1ccc2[nH]ncc2c1-c1nc(-c2cc(F)ccc2Nc2cccnc2)nc(C(N)=O)c1N` [Compound 519, 5-amino-2-(5-fluoro-2-(pyridin-3-ylamino)phenyl)-6-(5-methyl-1H-indazol-4-yl)pyrimidine-4-carboxamide], the IC50 worked out at 59 nM.

As for `Cc1ccc2[nH]ncc2c1-c1nc(-c2cccnc2N[C@H]2CC[C@@H](O)C2)nc(C(N)=O)c1N` [Compound 784], the IC50 came out at 44 nM.

On to `Cc1cc(Nc2cc(F)ccc2-c2nc(C(N)=O)c(N)c(-c3c(C)ccc4[nH]ncc34)n2)ncn1` [Compound 524], for which the IC50 worked out at 69 nM.

For the compound `Cc1ccc2[nH]ncc2c1-c1nc(-c2cc(F)c(C#N)cc2NC(C)C(F)(F)F)nc(C(N)=O)c1N` (centres unmarked) [Compound 755], the IC50 amounted to 103 nM.

As to `Cc1ccc2[nH]ncc2c1-c1nc(-c2cccnc2N[C@@H]2CCOC[C@H]2F)nc(C(N)=O)c1N` [Compound 647], the IC50 turned out to be 28 nM.

For `Cc1ccc(F)c(Nc2ncc(F)cc2-c2nc(C(N)=O)c(N)c(-c3c(C)ccc(O)c3C)n2)n1` [Compound 715, 5-amino-2-[5-fluoro-2-[(3-fluoro-6-methyl-2-pyridyl)amino]-3-pyridyl]-6-(3-hydroxy-2,6-dimethyl-phenyl)pyrimidine-4-carboxamide], the IC50 was 9 nM.

With `Cc1ccc2[nH]ncc2c1-c1nc(-c2cnccc2NCC(F)(F)F)nc(C(N)=O)c1N` [Compound 520, 5-amino-6-(5-methyl-1H-indazol-4-yl)-2-(4-((2,2,2-trifluoroethyl)amino)pyridin-3-yl)pyrimidine-4-carboxamide], the IC50 worked out at 27 nM.

Turning to `Cc1ccc2[nH]ncc2c1-c1nc(-c2ccc(F)cc2Nc2nccnc2C#N)nc(C(N)=O)c1N` [Compound 701], the IC50 is 25 nM.

Take `Cc1ccc2[nH]ncc2c1-c1nc(-c2cc(F)cnc2N[C@H]2CCOC2)nc(C(N)=O)c1N` [Compound 711]: the IC50 turned out to be 14 nM.

`Cc1ccc2[nH]ncc2c1-c1nc(-c2ccncc2NC(=O)OC(C)(C)C)nc(C(N)=O)c1N` [Compound 495]: the IC50 stood at 198 nM.

In the case of `Cc1ccc2[nH]ncc2c1-c1nc(-c2cccnc2Nc2cccc(Cl)c2)nc(C(N)=O)c1N` [Compound 638], the IC50 was 707 nM.

For `Cc1ccc2[nH]ncc2c1-c1nc(-c2cc(F)cnc2N[C@H]2CC[C@@](C)(O)CC2)nc(C(N)=O)c1N` [Compound 723], the IC50 came to 22 nM.

For the compound `Cc1ccc2[nH]ncc2c1-c1nc(-c2cccnc2NC2(C)CCOC2)nc(C(N)=O)c1N` (centres unmarked) [Compound 591], the IC50 is 22 nM.

In the case of `Cc1ccc2[nH]ncc2c1-c1nc(-c2ccc(F)cc2Nc2cc(C(C)(C)O)ccn2)nc(C(N)=O)c1N` [Compound 633], the IC50 was 998 nM.

On to `Cc1ccc2[nH]ncc2c1-c1cc2c(oc3ccc(OCC(F)(F)F)nc32)c(C(N)=O)c1N` [Compound 560], for which the IC50 came out at 7040 nM.

`Cc1ccc2[nH]ncc2c1-c1nc(-c2ccc(C#N)cc2Nc2ncccn2)nc(C(N)=O)c1N` [Compound 645]: the IC50 turned out to be 12 nM.

In the case of `Cc1ccc2[nH]ncc2c1-c1nc(-c2cc(F)cnc2NCC2(O)CC2)nc(C(N)=O)c1N` [Compound 692], the IC50 came to 195 nM.

With `Cc1ccc2[nH]ncc2c1-c1nc(-c2cc(F)ccc2Nc2cnn(C)c2)nc(C(N)=O)c1N` [Compound 521], the IC50 stood at 582 nM.

Regarding `CO[C@H]1C[C@@H](Nc2ncccc2-c2nc(C(N)=O)c(N)c(-c3c(C)ccc4[nH]ncc34)n2)C1` [Compound 548], the IC50 came out at 227 nM.

On to `Cc1c(F)cc2[nH]ncc2c1-c1nc(-c2cc(F)c(F)cc2NC(=O)C2(C(F)(F)F)CC2)nc(C(N)=O)c1N` [Compound 509], for which the IC50 was determined as 285 nM.

As to `Cc1ccc2[nH]ncc2c1-c1nc(-c2cccnc2Nc2cccc(F)n2)nc(C(N)=O)c1N` [Compound 659], the 50% inhibitory concentration (IC50) was 185 nM.

In the case of `Cc1ccc2[nH]ncc2c1-c1nc(-c2ccc(F)cc2Nc2cccnn2)nc(C(N)=O)c1N` [Compound 515], the IC50 came to 11 nM.

In the case of `Cc1ccc2[nH]ncc2c1-c1nc(-c2cccnc2N[C@H]2CCOC[C@H]2F)nc(C(N)=O)c1N` [Compound 644], the IC50 came out at 10 nM.

In the case of `Cc1ccc2[nH]ncc2c1-c1nc(-c2ccc(F)cc2Nc2cc(C3(C#N)CC3)ccn2)nc(C(N)=O)c1N` [Compound 698], the IC50 was 1610 nM.

As to `Cc1ccc2[nH]ncc2c1-c1cc2c(oc3ccc(NC4CCOCC4)nc32)c(C(N)=O)c1N` [Compound 575], the IC50 was determined as 24 nM.

As to `Cc1ccc2[nH]ncc2c1-c1nc(-c2ccc(F)cc2Nc2cncc(F)c2)nc(C(N)=O)c1N` [Compound 665], the IC50 was 41 nM.

Take `Cc1ccc2[nH]ncc2c1-c1nc(-c2cc(F)c(F)cc2NC2CNC2)nc(C(N)=O)c1N` [Compound 486]: the half-maximal inhibitory concentration (IC50) came to 114 nM.

Regarding `Cc1ccc2[nH]ncc2c1-c1nc(-c2cc(F)cnc2NCC(F)F)nc(C(N)=O)c1N` [Compound 504], the IC50 is 31 nM.

With `Cc1ccc2[nH]ncc2c1-c1nc(-c2ccc(F)cc2NS(C)(=O)=O)nc(C(N)=O)c1N` [Compound 512], the IC50 is 52 nM.

For the compound `Cc1ccc2[nH]ncc2c1-c1nc(-c2cc(F)cnc2NCC(F)(F)F)nc(C(N)=O)c1N` [Compound 747], the IC50 turned out to be 87 nM.

For the compound `Cc1ccc2[nH]ncc2c1-c1nc(-c2ccc(F)cc2Nc2nccs2)nc(C(N)=O)c1N` [Compound 581], the IC50 was determined as 40 nM.

As to `Cc1ccc2[nH]ncc2c1-c1nc(-c2cc(F)c(F)cc2NCC2(C)COC2)nc(C(N)=O)c1N` [Compound 503], the half-inhibitory concentration (IC50) was found to be 23 nM.

Regarding `Cc1ccc2[nH]ncc2c1-c1nc(-c2nccnc2NCC(F)(F)F)nc(C(N)=O)c1N` [Compound 555, 5-amino-6-(5-methyl-1H-indazol-4-yl)-2-(3-((2,2,2-trifluoroethyl)amino)pyrazin-2-yl)pyrimidine-4-carboxamide], the IC50 was found to be 219 nM.

Take `Cc1ccc2[nH]ncc2c1-c1nc(-c2cccnc2N[C@H]2CCOC2)nc(C(N)=O)c1N` [Compound 550]: the concentration for half-maximal inhibition (IC50) is 7 nM.

The test is the same for the next values; noted with them: 2 h, 2 hours with compound, read-out: FUOV-1 CDK1 pThr14 IC50.
Turning to `Cc1ccc2[nH]ncc2c1-c1nc(-c2ccc(F)nc2Nc2cccnc2F)nc(C(N)=O)c1N` [Compound 917], the IC50 turned out to be 203 nM.

As for `Cc1ccc2[nH]ncc2c1-c1nc(-c2cc(F)cnc2NCCN2CCCC2)nc(C(N)=O)c1N` [Compound 853], the IC50 worked out at 538 nM.

For the compound `Cc1cc(F)c2[nH]ncc2c1-c1nc(-c2cccnc2NCC(F)(F)F)nc(C(N)=O)c1N` [Compound 872], the IC50 was 147 nM.

For `Cc1ccc2[nH]ncc2c1-c1nc(-c2cn(C)nc2Nc2ccccn2)nc(C(N)=O)c1N` [Compound 916, 5-amino-6-(5-methyl-1H-indazol-4-yl)-2-(1-methyl-3-(pyridin-2-ylamino)-1H-pyrazol-4-yl)pyrimidine-4-carboxamide], the IC50 is 926 nM.

Take `[2H]C([2H])([2H])c1ccc2[nH]ncc2c1-c1nc(-c2ccc(F)nc2Nc2ncccc2F)nc(C(N)=O)c1N` [Compound 930]: the IC50 came to 5 nM.

With `Cc1cc(F)c2[nH]ncc2c1-c1nc(-c2ccc(F)nc2Nc2nc(C(F)F)ccc2F)nc(C(N)=O)c1N` [Compound 867], the IC50 was 14 nM.

Take `[2H]C([2H])([2H])c1ccc2[nH]ncc2c1-c1nc(-c2cc(F)cnc2N[C@H]2C[C@@](C)(O)C2)nc(C(N)=O)c1N` [Compound 964]: the IC50 was found to be 68 nM.

`Cc1ccc2[nH]ncc2c1-c1nc(-c2cc(F)ncc2NC2CC(F)(F)C2)nc(C(N)=O)c1N` [Compound 844]: the IC50 was 38 nM.

Regarding `Cc1ccc2[nH]ncc2c1-c1nc(-c2ccc(F)nc2NC2CS(=O)(=O)C2)nc(C(N)=O)c1N` [Compound 819], the IC50 was found to be 23 nM.

Turning to `Cc1ccc(F)c(Nc2ncccc2-c2nc(C(N)=O)c(N)c(-c3c(Cl)ccc4[nH]ncc34)n2)n1` [Compound 798], the IC50 stood at 5 nM.

In the case of `[2H]C([2H])([2H])c1ccc2[nH]ncc2c1-c1nc(-c2ccc(Cl)nc2Nc2nccnc2F)nc(C(N)=O)c1N` [Compound 966], the IC50 was found to be 11 nM.

Regarding `[2H]C([2H])([2H])c1ccc2[nH]ncc2c1-c1nc(-c2ccc(C(F)F)nc2Nc2ncccc2F)nc(C(N)=O)c1N` [Compound 959], the IC50 is 8 nM.

As for `Cc1ccc(Cl)nc1Nc1nc(F)ccc1-c1nc(C(N)=O)c(N)c(-c2c(C)cc(F)c3[nH]ncc23)n1` [Compound 877], the IC50 came to 37 nM.

For the compound `Cc1ccc2[nH]ncc2c1-c1nc(-c2ccc(F)cc2N[C@H]2C[C@](C)(O)C2)nc(C(N)=O)c1N` [Compound 861], the IC50 is 95 nM.

Staying with this test, now noted: 2 h compound incubation, read-out: FUOV-1 CDK1 pThr14 IC50.
`Cc1ccc2[nH]ncc2c1-c1nc(-c2cccnc2Nc2cccnc2)nc(C(N)=O)c1N` [Compound 595]: the IC50 was found to be 1540 nM.
